molecular target: T1, full length active recombinant SYK enzyme (Homo sapiens, UniProt P43405); test: Inhibition of Syk tyrosine phosphorylation activity (LANCE TR-FRET kinase assay); format: biochemical; settings: activity in the Syk assays, class symbols
T1 construct: full length active recombinant SYK enzyme (Millipore, Calif.); purchased Millipore
From the text: The in vitro and in vivo human Syk activities of the inventive compounds can be determined by various procedures known in the art, such as a test for their ability to inhibit the activity of human plasma Syk. […] The IC50 value is the concentration (in nM) of the compound required to provide 50% inhibition of human Syk proteolytic activity.
An in vitro assay for detecting and measuring inhibition activity against Syk is as follows:
Inhibition of Syk Tyrosine Phosphorylation Activity
Potency of candidate molecules for inhibiting Syk tyrosine phosphorylation activity is assessed by measuring the ability of a test compound to inhibit Syk-mediated tyrosine phosphorylation of a Syk-specific substrate.
SYK tyrosine phosphorylation activity is measured using the LANCE™ Technology developed by Perkin Elmer Life and Analytical Sciences (Boston, Mass.). LANCE™ refers to homogeneous time resolved fluorometry applications using techniques such as time-resolved fluorescence resonance energy transfer assay (TR-FRET) (see generally for procedures in Perkin Elmer Application Note-How to Optimize a Tyrosine Kinase Assay Using Time Resolved Fluorescence-Based LANCE Detection, wwww.perkinelmer.com/lifesciences). The assay principle involves detection of a phosphorylated substrate using energy transfer from a phosphospecific europium-labeled antibody to streptavidin-allophycocyanin as an acceptor.
To test the ability of candidate molecules to inhibit SYK tyrosine phosphorylation activity, molecules are reconstituted in 30% DMSO and serially diluted 1:3 with the final dilution containing DMSO in the absence of the candidate molecule. The final DMSO concentration in the assay is 3%. Kinase assays are performed as a two part reaction. The first reaction is a kinase reaction and which comprises of a candidate molecule, full length active recombinant SYK enzyme (Millipore, Calif.) and biotin-labeled SYK-specific substrate biotin-DEEDYESP-OH. The second reaction involves termination of the kinase reaction and the simultaneous addition of the detection reagents-europium-labeled anti-phosphotyrosine reagent (Eu-W1024-PY100, Perkin Elmer, Boston, Mass.) and Streptavidin-Allophycocyanin detection reagent (SA-APC, Prozyme, CA). The kinase reaction is performed in a black U-bottom 96-well microtitre plate. The final reaction volume is 50 μL and contains a final concentration of 1 nM active SYK enzyme, 550 nM SYK-substrate, and 100 μM ATP diluted in a buffer containing 50 mM Tris pH 7.5, 5 mM MgCl2, and 1 mM DTT. The reaction is allowed to proceed for 1 hour at room temperature. The quench buffer contains 100 mM Tris pH 7.5, 300 mM NaCl2, 20 mM EDTA, 0.02% Brij35, and 0.5% BSA. The detection reagents are added to the reaction mixture at the following dilutions-1:500 for Eu-W1024-PY100 and 1:250 for SA-APC. The kinase reaction is terminated by the addition of 50 μL quench buffer containing the detection reagents. The detection is allowed to proceed for 1 hr at room temperature. Detection of the phosphorlated substrate in the absence and presence of inhibitors is measured in the TR-FRET instrument, Analyst HT (Molecular Probes, Sunnyvale, Calif.) and the condition for measurements are set up using CriterionHost Release 2.0 (Molecular Probes, Sunnyvale, Calif.). The settings used are a follows: excitation 360 nm, emission 665-7.5 nm, beam splitter 350 nm 50/50, flash 100 pulses, delay 60 us, integration 400 us, z-height 2 mm. Inhibition of SYK-tyrosine kinase activity is calculated as the maximum response observed in the presence of inhibitor, compared to that in the absence of inhibitor. IC50s were derived by non-linear regression analysis.

| IC50 | SMILES |
| --- | --- |
| 10 to 100 nM | CC(C)C[C@@H](Nc1cnc(C(N)=O)c(Nc2ccc(-n3cccn3)cc2)n1)C(N)=O [Example 71] |
| 1 to 10 nM | NC(=O)c1ncc(N[C@H](C2CC2)C2(N)CC2)nc1Nc1cccc(-c2ncccn2)c1 [Example 72, (R)-5-((1-aminocyclopropyl)(cyclopropyl)methylamino)-3-(3-(pyrimidin-2-yl)phenylamino)pyrazine-2-carboxamide] |
| 1 to 10 nM | CC[C@@H](Nc1cnc(C(N)=O)c(Nc2csc3ncccc23)n1)C(N)=O [Example 75, (R)-5-(1-amino-1-oxobutan-2-ylamino)-3-(thieno[2,3-b]pyridin-3-ylamino)pyrazine-2-carboxamide] |
| 1 to 10 nM | NC(=O)c1ncc(N[C@@H](C(N)=O)C2CC2)nc1Nc1ccc2ncccc2c1 [Example 76, (R)-5-(2-amino-1-cyclopropyl-2-oxoethylamino)-3-(quinolin-6-ylamino)pyrazine-2-carboxamide] |
| 1 to 10 nM | CC[C@@H](Nc1cnc(C(N)=O)c(Nc2ccc(-n3ccnc3)cc2)n1)C(N)=O [Example 80, (R)-3-(4-(1H-imidazol-1-yl)phenylamino)-5-(1-amino-1-oxobutan-2-ylamino)-pyrazine-2-carboxamide] |
| 1 to 10 nM | Cc1cc(Nc2nc(N[C@H](CC(C)C)C(N)=O)cnc2C(N)=O)ccn1 [Example 84, (R)-5-(1-amino-4-methyl-1-oxopentan-2-ylamino)-3-(2-methylpyridin-4-ylamino)pyrazine-2-carboxamide] |

Continued, compound first:

| SMILES | IC50 |
| --- | --- |
| CC[C@@H](Nc1cnc(C(N)=O)c(Nc2cnc3ccccc3c2)n1)C(N)=O [Example 73, (R)-5-(1-amino-1-oxobutan-2-ylamino)-3-(quinolin-3-ylamino)pyrazine-2-carboxamide] | 1 to 10 nM |
| CC[C@@H](Nc1cnc(C(N)=O)c(Nc2ccc3ncccc3c2)n1)C(N)=O [Example 74, (R)-5-(1-amino-1-oxobutan-2-ylamino)-3-(quinolin-6-ylamino)pyrazine-2-carboxamide] | 1 to 10 nM |
| CC[C@@H](Nc1cnc(C(N)=O)c(Nc2cc(C)cc(C)c2)n1)C(N)=O [Example 77, (R)-5-(1-amino-1-oxobutan-2-ylamino)-3-(3,5-dimethylphenylamino)pyrazine-2-carboxamide] | 1 to 10 nM |
| Cc1ccc(Nc2nc(N[C@@H]3CCOC[C@@H]3N)cnc2C(N)=O)cc1 [Example 78, 5-((3R,4R)-3-aminotetrahydro-2H-pyran-4-ylamino)-3-(p-tolylamino)pyrazine-2-carboxamide] | 1 to 10 nM |
| NC(=O)c1ncc(N[C@@H]2CCOC[C@@H]2N)nc1Nc1cnc2ccccc2c1 [Example 79, 5-((3R,4R)-3-aminotetrahydro-2H-pyran-4-ylamino)-3-(quinolin-3-ylamino)pyrazine-2-carboxamide] | 1 to 10 nM |
| NC(=O)c1ncc(N[C@@H]2CCOC[C@@H]2N)nc1Nc1cccc(-n2nccn2)c1 [Example 81, 3-(3-(2H-1,2,3-triazol-2-yl)phenylamino)-5-((3R,4R)-3-aminotetrahydro-2H-pyran-4-ylamino)pyrazine-2-carboxamide] | < 1 nM |
| NC(=O)c1ncc(N[C@@H]2CCOC[C@@H]2N)nc1Nc1cccc(-c2ncccn2)c1 [Example 82, 5-((3R,4R)-3-aminotetrahydro-2H-pyran-4-ylamino)-3-(3-(pyrimidin-2-yl)phenylamino)pyrazine-2-carboxamide] | 1 to 10 nM |
| Cc1cncc(Nc2nc(N[C@H](CC(C)C)C(N)=O)cnc2C(N)=O)c1 [Example 83, (R)-5-(1-amino-4-methyl-1-oxopentan-2-ylamino)-3-(5-methylpyridin-3-ylamino)pyrazine-2-carboxamide] | 1 to 10 nM |
| CC(C)C[C@@H](Nc1cnc(C(N)=O)c(Nc2ccc(C(F)(F)F)nc2)n1)C(N)=O [Example 85, (R)-5-(1-amino-4-methyl-1-oxopentan-2-ylamino)-3-(6-(trifluoromethyl)pyridin-3-ylamino)pyrazine-2-carboxamide] | 10 to 100 nM |

— US9359308B2, “Pyrazine kinase inhibitors” (Portola Pharmaceuticals, Inc., priority 2011, dated 2016)
